Test results: ChEMBL document CHEMBL1127982, “Synthesis, chemical half-life and decomposition of new N3-(substituted) derivatives of CCNU” (Bioorg Med Chem Lett, 1994)

Test: Chemical half-life was determined
Details: not given; call rule not given here

SMILES | half-life [h]
CC(O)CN(C(=O)N(CCCl)N=O)C1CCCCC1 (centres undefined) | 43.3
O=NN(CCCl)C(=O)N(C1CCCCC1)C1CCCCC1 | 62.6
CCN(C(=O)N(CCCl)N=O)C1CCCCC1 | 132
C#CCN(C(=O)N(CCCl)N=O)C1CCCCC1 | 76.8
CCCN(C(=O)N(CCCl)N=O)C1CCCCC1 | 69.8
CN(C(=O)N(CCCl)N=O)C1CCCCC1 | 47.8
CC(C)N(C(=O)N(CCCl)N=O)C1CCCCC1 | 32.9
O=NN(CCCl)C(=O)NC1CCCCC1 [LOMUSTINE] | 2.1

Test: HChemical half-life was determined, not active
Type: ADME
Details: not given

SMILES | T1/2
O=NN(CCCl)C(=O)N(CCCO)C1CCCCC1 | Not Active

Test: Partition coefficient (logD7.4)
Details: octanol/water, pH 7.4

SMILES | logD
CC(C)N(C(=O)NCCCl)C1CCCCC1 | 2.36
C=CCN(C(=O)NCCCl)C1CCCCC1 | 1.48
CC(O)CN(C(=O)NCCCl)C1CCCCC1 (centres undefined) | 0.37
CC(C)(C)N(C(=O)NCCCl)C1CCCCC1 | 3.03
CC(C)CN(C(=O)NCCCl)C1CCCCC1 | 1.93
CN(C(=O)NCCCl)C1CCCCC1 | 1.41
CC(C)(C)N(C(=O)N(CCCl)N=O)C1CCCCC1 | 2.46
CC(C)N(C(=O)N(CCCl)N=O)C1CCCCC1 | 1.78
O=NN(CCCl)C(=O)NC1CCCCC1 [LOMUSTINE] | 2.83

Test: Chemical half-life was determined; not active
Type: ADME
Details: not given

SMILES | T1/2
CC(C)(C)N(C(=O)N(CCCl)N=O)C1CCCCC1 | Not Active
